Reference: US9724408B2, “Compositions and methods for activating stimulator of interferon gene-dependent signalling” (ADURO BIOTECH, INC., priority 2013, dated 2017)

What was measured:
THP1-Blue™ ISG cells = assay: Type I interferon induction in THP1-Blue ISG reporter cells (QUANTI-Blue, A655); format: cell-based, human; details: 100 μM for 30 minutes, supernatants after overnight incubation, FIG. 7
Protocol: To determine the relative level of type I interferon induced in human cells by each of the native and derivative molecules as a signature of adjuvant potency, 4×10^5 THP1-Blue™ ISG cells (a human monocyte cell line transfected with an IRF-inducible secreted embryonic alkaline phosphatase reporter gene (Invivogen) which express alkaline phosphatase under the control of a promoter comprised of five IFN-stimulated response elements) were incubated with 100 μM of cyclic [G(3′,5′)pG(3′,5′)p] (CDG), cyclic [G(2′,5′)pG(3′,5′)p] (mixed linkage, or ML-CDG), or HBSS for 30 minutes at 37° C. with 5% CO2. After 30 minutes, cells were washed and plated in 96-well dish in RPMI media containing 10% FBS, and incubated at 37° C. with 5% CO2. Cell culture supernatants from each sample were collected after overnight incubation, and 20 μL of the cell culture supernatants was added to 180 μL QUANTI-Blue reagent (Invivogen) and incubated for 45 minutes to evaluate type I interferon protein levels. Readings at Absorbance 655 nm were taken every 3 minutes using a Versa Max kinetic spectrophotometer (Molecular Diagnostics).
[…]. After 30 minutes, cells were washed and plated in 96-well dish in RPMI media containing 10% FBS, and incubated at 37° C. with 5% CO2. Cell culture supernatants from each sample were collected after overnight incubation, and 20 μL of the cell culture supernatants was added to 180 μL QUANTI-Blue reagent (Invivogen) and incubated for 45 minutes. Readings at Absorbance 655 nm were taken at 15 minutes using a SpectraMax spectrophotometer (Molecular Diagnostics).
The induction of type I interferon in human cells was measured to evaluate the potency of untreated and phosphodiesterase-treated oxo, Rp monothio and Rp, Rp dithio derivatives. […]. After 30 minutes, cells were washed and plated in a 96-well dish in RPMI media containing 10% FBS, and incubated at 37° C. with 5% CO2. Cell culture supernatants from each sample were collected after 16 hr incubation, and 20 μL of the cell culture supernatants was added to 180 μL QUANTI-Blue reagent (Invivogen) and incubated for 25 minutes to evaluate type I interferon protein levels. Readings at Absorbance 655 nm were measured with a Versa Max spectrophotometer (Molecular Diagnostics).

OVA257-264 peptide [1] = assay: OVA-specific CD8 T cell response after CDN-adjuvanted OVA vaccination (IFNγ ELISpot); format: in vivo, C57BL/6 mice; details: subcutaneous
Protocol: To determine the OVA-specific CD8 T cell response induced by the different cyclic dinucleotide molecules, C57BL/6 mice (n=5) were immunized subcutaneously with 0 μg (no CDN) or 5 μg or 25 μg [G(2′,5′)pG(3′,5′)p] (mixed linkage or ML-CDG) formulated in 2% squalene-and-water with 10 μg ovalbumin protein. Seven days following the vaccination, blood was collected from each animal, and PBMCs were prepared. 5×10^4 PBMCs were stimulated overnight in an IFNγ ELISpot assay with media alone (unstimulated) or with 1 μM OVA257-264 peptide in the presence of 1×10^5 naïve splenocytes as feeder cells. IFNγ ELISpots were developed and quantified using a CTL plate reader and ImmunoSpot software.
To determine whether STING signaling is required for c[G(2′,5′)pG(3′,5′)p] (ML-CDG) to induce an OVA-specific CD8 T cell response, C57BL/6 mice (n=3 or 5) and goldenticket mice (n=3) were immunized subcutaneously with either 0 μg (no CDN) or 25 μg c[G(2′,5′)pG(3′,5′)p] (ML-CDG) formulated in 2% squalene-and-water with 10 μg ovalbumin protein. Seven days following the vaccination, blood was collected from each animal, and PBMCs were prepared. […] IFNγ ELISpots were developed and quantified using a CTL plate reader and ImmunoSpot software.

primary human PBMCs [2] = assay: Interferon gene expression in primary human PBMCs (real-time quantitative RT-PCR); format: cell-based; details: 5 μM, Effectene transfection, 6 hrs, four donors, FIG. 8
Protocol: (§1) To determine the levels of IFN-α, -β and -γ induced by cyclic [G(2′,5′)pG(3′,5′)p] (ML-CDG) compared to cyclic [G(3′,5′)pG(3′,5′)p] as a signature of potency to activate innate immunity, 1×10^6 primary human PBMCs isolated from four independent human donors were incubated in a 96 well U bottom plate for 30 min at 37° C., 5% CO2 with 5 or 0.5 μM of cyclic [G(3′,5′)pG(3′,5′)p] (CDG) or cyclic [G(2′,5′)pG(3′,5′)p] (ML-CDG), 1 μg/mL of Interferon Stimulatory DNA (ISD), or 4 μg/mL of Poly (I:C) utilizing Effectene transfection reagent (Qiagen) to transfer the molecules into the PBMC. ISD (Interferon Stimulating DNA) is TLR independent (Stetston, D. B. et. al. Immunity 24, 93-103, January 2006) and signals through cGAS, and is thus STING-dependent, while Poly (I:C) can signal through both TLR3 and RIG-I pathways, and are thus STING-independent. After 30 minutes, the cells were washed and replaced with RPMI media containing 10% FBS and incubated at 37° C., 5% CO2. After 6 hrs incubation, a portion of the cells were harvested and assessed by real-time quantitative RT-PCR for gene expression of the type I cytokines interferon alpha 2 (IFNA2) and interferon beta 1 (IFNB1), and the type II cytokine gene interferon gamma (IFNG). Gene expression was determined by real-time quantitative RT-PCR using the PrimePCR RNA purification and cDNA analysis system, and run on the CFX96 gene cycler (all BioRad). Normalized expression was determined for each, which accounts for the different efficiencies of PCR amplification for the target (Etarget) and the reference (Ereference), and transforms the logarithmic scaled raw data unit Cycle Threshold (CT) into the linear unit of Normalized Expression. […] To assess correlative secreted protein levels of these cytokines, supernatants were harvested from the remaining cells after 24 hours incubation and IFN-α and -γ levels were determined by Cytometric Bead Array (CBA, BD Biosciences), while IFN-β levels were determined by ELISA (PBL).

OVA257-264 peptide [3] = assay: OVA-specific CD8 T cell response in goldenticket (STING−/−) mice (IFNγ ELISpot); format: in vivo; details: 25 μg in 2% squalene-and-water with 10 μg ovalbumin, subcutaneous, day 7, FIG. 17
Protocol: To determine whether STING signaling is required for c[G(2′,5′)pG(3′,5′)p] (ML-CDG) to induce an OVA-specific CD8 T cell response, C57BL/6 mice (n=3 or 5) and goldenticket mice (n=3) were immunized subcutaneously with either 0 μg (no CDN) or 25 μg c[G(2′,5′)pG(3′,5′)p] (ML-CDG) formulated in 2% squalene-and-water with 10 μg ovalbumin protein. Seven days following the vaccination, blood was collected from each animal, and PBMCs were prepared. 5×10^4 PBMCs were stimulated overnight in an IFNγ ELISpot assay with media alone (unstimulated) or with 1 μM OVA257-264 peptide in the presence of 1×10^5 naïve splenocytes as feeder cells. IFNγ ELISpots were developed and quantified using a CTL plate reader and ImmunoSpot software.

primary human PBMCs [4] = assay: Secreted interferon protein in primary human PBMCs (CBA, ELISA); format: cell-based; details: 24 hours, four donors
Protocol: as §1

SMILES: Nc1nc2c(ncn2C2OC3COP(=O)(O)OC4C(O)C(COP(=O)(O)OC3C2O)OC4n2cnc3c(=O)[nH]c(N)nc32)c(=O)[nH]1 (stereo not shown) [ML-CDG, cyclic-[G(2′,5′)pG(3′,5′)p]]
- levels of IFN-β (type I interferon protein levels) (THP1-Blue™ ISG cells): significantly higher levels of IFN-β than cyclic [G(3′,5′)pG(3′,5′)p]
- OVA-specific CD8 immune responses (OVA257-264 peptide [1]; 5 μg or 25 μg in 2% squalene-and-water with 10 μg ovalbumin, day 7, FIG. 16): significantly higher than responses induced by unstimulated controls and by a no CDN control group
- OVA-specific CD8 T cell response, wild-type mice (OVA257-264 peptide [1]; 25 μg in 2% squalene-and-water with 10 μg ovalbumin, day 7, FIG. 17): induces significant OVA257-264 immune responses compared to unstimulated control and a no CDN control
- gene expression for interferon gamma (IFNG) (primary human PBMCs [2]): significantly higher level
- gene expression of interferon alpha 2 (IFNA2) (primary human PBMCs [2]): significantly higher
- gene expression of interferon beta 1 (IFNB1) (primary human PBMCs [2]): significantly higher
- OVA-specific CD8 T cell response, goldenticket mice (OVA257-264 peptide [3]): not significantly different than the OVA-specific responses induced by a control formulation that does not include CDN
- secretion of IFN-γ (primary human PBMCs [4]; 5 μM and 0.5 μM, CBA, FIG. 9(c)): higher levels of IFN-γ than cyclic [G(3′,5′)pG(3′,5′)p] at the same doses, and higher levels than the ISD and Poly I:C controls
- levels of secreted IFN-α (primary human PBMCs [4]; 5 μM, CBA, FIG. 9(a)): higher than cyclic [G(3′,5′)pG(3′,5′)p] at the same or lower dose
- levels of IFN-β (primary human PBMCs [4]; 5 μM, ELISA, FIG. 9(b)): higher than with cyclic [G(3′,5′)pG(3′,5′)p] induced levels, as well as for the ISD and Poly I:C controls
